Results from US20260272944A1, “PYRIDO[3,4-D]PYRIMIDINONE AND PYRIMDLLNE ARYL HYDROCARBON RECEPTOR ANTAGONISTS AND USES THEREOF” (ALLIANTHERA (SUZHOU) BIOPHARMACEUTICAL CO., LTD., priority 2023, published 2026).

Biological target: T1, Human Aryl Hydrocarbon Receptor (AhR) (Homo sapiens, UniProt P35869)
T1 construct: purchased INDIGO Bioscience IB06001-32; host or cells: AhR Reporter Cell (the kit's proprietary reporter cells)
T1 sequence (P35869 11-848): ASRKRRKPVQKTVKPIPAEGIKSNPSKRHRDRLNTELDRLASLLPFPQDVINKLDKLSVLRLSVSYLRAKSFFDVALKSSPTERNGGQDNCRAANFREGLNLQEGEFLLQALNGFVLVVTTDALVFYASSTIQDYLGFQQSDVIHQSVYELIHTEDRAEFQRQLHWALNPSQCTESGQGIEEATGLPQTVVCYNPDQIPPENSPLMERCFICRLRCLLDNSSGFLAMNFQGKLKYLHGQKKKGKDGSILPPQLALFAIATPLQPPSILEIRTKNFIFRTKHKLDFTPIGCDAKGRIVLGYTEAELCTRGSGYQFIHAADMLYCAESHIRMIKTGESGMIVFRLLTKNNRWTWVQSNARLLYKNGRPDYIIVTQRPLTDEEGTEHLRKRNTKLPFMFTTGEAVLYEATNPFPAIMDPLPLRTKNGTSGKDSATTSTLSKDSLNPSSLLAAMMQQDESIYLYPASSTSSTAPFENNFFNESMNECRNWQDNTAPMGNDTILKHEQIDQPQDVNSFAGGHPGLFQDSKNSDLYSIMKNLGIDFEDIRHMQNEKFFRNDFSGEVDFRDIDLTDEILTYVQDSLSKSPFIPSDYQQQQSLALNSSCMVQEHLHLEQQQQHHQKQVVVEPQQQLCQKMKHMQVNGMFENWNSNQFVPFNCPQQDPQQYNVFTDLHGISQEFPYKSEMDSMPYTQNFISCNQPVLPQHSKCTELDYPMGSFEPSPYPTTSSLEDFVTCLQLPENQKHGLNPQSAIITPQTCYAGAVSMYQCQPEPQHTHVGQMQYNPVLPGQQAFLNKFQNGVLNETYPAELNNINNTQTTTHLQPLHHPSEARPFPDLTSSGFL
Assay: AhR reporter assay (Human Aryl Hydrocarbon Receptor (AhR) Reporter Assay System, INDIGO Bioscience)
Assay type: cell-based
Details: AHR inhibition at 10 nM test compound; AhR Reporter Cells activated with 200 μM kynurenic acid, 24 hours; firefly luciferase; normalized by positive and negative controls
Procedure: The AhR reporter assay was performed following the protocol of the Human Aryl Hydrocarbon Receptor (AhR) Reporter Assay System (INDIGO Bioscience, #IB06001-32). AhR Reporter Cell was thawed and pre-incubated in Cell Recovery Medium (CRM) for 6 hours. The media was then removed and the cells were incubated with Compound Screening Medium (CSM) supplemented with 200 μM kynurenic acid for 24 hours in the absence (negative control) or presence of 10 nM test compounds. For positive inhibition control, cells activated with 200 μM kynurenic acid were incubated in the presence of literature AHR antagonists; alternatively un-activated cells were used as positive inhibition control. Following 24 hours incubation, the media was removed and Luciferase Detection Reagent (LDR) added. The firefly luciferase activity was quantified using a plate reader. Results were normalized by positive and negative controls.
The results of AHR inhibition at 10 nM for compounds as disclosed herein is reported in the below table.

| SMILES | inhibition at 0.01 µM [%] |
| --- | --- |
| C[C@@H](CO)NC(=O)c1cc(N2CCN(c3ccc(F)cc3)C[C@@H]2C)nc(-c2cnn(C)c2)n1 [Compound 77] | 4 |
| C[C@@H](CO)NC(=O)c1cc(N2Cc3cccc(F)c3C2)nc(-c2cnn(C)c2)n1 [Compound 88] | 21 |
| C[C@@H](CO)NC(=O)c1cc(-c2ccc(N3CCOCC3)nc2)nc(-c2cnn(C)c2)n1 [Compound 90] | 1 |
| C[C@@H](CO)NC(=O)c1cc(-c2ccc(N3CCN(S(C)(=O)=O)CC3)cc2)nc(-c2cnn(C)c2)n1 [Compound 91] | 7 |
| C[C@@H](CO)NC(=O)c1cc(N2Cc3ccc(F)cc3C2)nc(-c2cnn(C)c2)n1 [Compound 93] | 99 |
| Cc1cc(-c2cc(C(=O)N[C@@H](C)CO)nc(-c3cnn(C)c3)n2)ccc1N1CCOCC1 [Compound 96] | 10 |
| C[C@@H](CO)NC(=O)c1cc(-c2ccc(NC(=O)CN3CCOCC3)cc2)nc(-c2cnn(C)c2)n1 [Compound 98] | 5 |
| C[C@@H](CO)NC(=O)c1cc(-c2ccc(C(=O)N3CCC(N)C3)cc2)nc(-c2cnn(C)c2)n1 (stereo partly drawn) [Compound 105] | -3 |
| C[C@@H](CO)NC(=O)c1cc(-c2ccc(-c3ccc(=O)n(C)c3)cc2)nc(-c2cnn(C)c2)n1 [Compound 112] | 10 |
| C[C@@H](CO)NC(=O)c1cc(N2Cc3cccnc3C2)nc(-c2cnn(C)c2)n1 [Compound 117] | 46 |
| C[C@@H](CO)n1cnc2c(-c3cnn(C)c3)nc(-c3ccc(-c4cnc(N)nc4)nc3)cc2c1=O [Compound 119] | 2 |
| C[C@@H](CO)n1cnc2c(-c3cnn(C)c3)nc(-c3ccc(C(=O)N4CCN(S(C)(=O)=O)CC4)cc3)cc2c1=O [Compound 120] | -10 |
| C[C@@H](CO)n1cnc2c(-c3cnn(C)c3)nc(N3CCN(c4ncccn4)CC3)cc2c1=O [Compound 121] | 4 |
| C[C@@H](CO)n1cnc2c(-c3cnn(C)c3)nc(N3CCN(c4ccc(F)cc4F)CC3)cc2c1=O [Compound 122] | 46 |
| C[C@@H](CO)n1cnc2c(-c3cnn(C)c3)nc(N3CCN(c4ccccc4)CC3)cc2c1=O [Compound 123] | 91 |
| C[C@@H](CO)n1cnc2c(-c3cnn(C)c3)nc(N3Cc4cccnc4C3)cc2c1=O [Compound 124] | 77 |
| C[C@H](CO)NC(=O)c1cc(N2Cc3ccccc3C2)nc(-c2cnn(C)c2)n1 [Compound 125] | 23 |
| C[C@H](NC(=O)c1cc(N2Cc3ccccc3C2)nc(-c2cnn(C)c2)n1)C(=O)O [Compound 126] | 5 |
| C[C@@H](CNS(=O)(=O)C1CC1)NC(=O)c1cc(N2Cc3ccccc3C2)nc(-c2cnn(C)c2)n1 [Compound 127] | 52 |
| C[C@@H](CO)n1cnc2c(-n3nc(N)ccc3=O)nc(-c3cncc(F)c3)cc2c1=O [Compound 128] | 4 |
| C[C@@H](CO)n1cnc2c(-n3cncc3C3CC3)nc(-c3cncc(F)c3)cc2c1=O [Compound 129] | 7 |
